Experimental data as given in patent US8840938B2, “Bioavailability enhancing composition” (priority 2011, dated 2014).
Read-outs that look alike come from different tables or passages of the source.

Legend:
[1] = molecular target: TRPV1 (Homo sapiens, UniProt Q8NER1); test: Scoville Heat Unit (SHU) as a measure of TRPV1 activation; details: for Adjusted SHU: SHU of pure agonist times percent agonist in the herb, totals per herb; for SHU of pure Agonist: pure TRPV1 agonist, per mg
Method: SHU as used herein as a measure of TRPV1 activation. SHU mg is calculated as the SHU of a TRPV1 agonist multiplied by the milligrams of the TRPV1 agonist in a compound.

[2] = cited from earlier work; for Peak theophylline plasma levels / levels of theophylline (absorption) / mean residence times of theophylline: rabbits, oral theophylline 20 mg/kg
[3] = concomitant ground capsicum fruit suspension

Chain of TRPV1 (Q8NER1 whole entry, species assumed): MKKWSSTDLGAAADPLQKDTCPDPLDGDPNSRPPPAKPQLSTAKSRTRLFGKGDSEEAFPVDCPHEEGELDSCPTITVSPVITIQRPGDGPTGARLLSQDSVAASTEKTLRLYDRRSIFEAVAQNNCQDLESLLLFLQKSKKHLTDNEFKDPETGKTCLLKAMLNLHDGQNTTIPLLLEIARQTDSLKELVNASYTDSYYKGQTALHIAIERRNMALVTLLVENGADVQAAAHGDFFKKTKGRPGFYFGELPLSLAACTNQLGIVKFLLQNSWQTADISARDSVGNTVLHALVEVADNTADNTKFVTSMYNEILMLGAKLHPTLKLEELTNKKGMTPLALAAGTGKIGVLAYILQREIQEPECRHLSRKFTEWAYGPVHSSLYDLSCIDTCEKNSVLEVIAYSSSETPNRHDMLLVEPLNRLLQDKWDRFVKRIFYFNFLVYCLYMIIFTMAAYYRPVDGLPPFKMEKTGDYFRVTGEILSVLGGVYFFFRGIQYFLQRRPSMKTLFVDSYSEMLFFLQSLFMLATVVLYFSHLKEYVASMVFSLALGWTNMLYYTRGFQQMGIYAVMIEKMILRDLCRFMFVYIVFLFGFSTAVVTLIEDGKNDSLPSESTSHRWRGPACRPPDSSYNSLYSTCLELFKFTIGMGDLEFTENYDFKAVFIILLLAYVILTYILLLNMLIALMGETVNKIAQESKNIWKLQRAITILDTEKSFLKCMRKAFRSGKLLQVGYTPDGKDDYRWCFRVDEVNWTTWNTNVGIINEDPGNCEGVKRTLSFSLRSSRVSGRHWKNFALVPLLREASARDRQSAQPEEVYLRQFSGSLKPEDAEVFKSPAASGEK

| Compound | Adjusted SHU [1] | SHU of pure Agonist [1] | also measured |
| --- | --- | --- | --- |
| CCCCC[C@H](O)CC(=O)CCc1ccc(O)c(OC)c1 [Formulation 6-gingerol, 6-gingerol] | 3,600 SHU | 60,000 SHU | – |
| CCCCC/C=C/C(=O)CCc1ccc(O)c(OC)c1 [Formulation 6-shogaol, 6-shogaol] | 9,600 SHU | 160,000 SHU | – |
| COc1cc(CNC(=O)CCCC/C=C/C(C)C)ccc1O [capsaicin] | 40,000 SHU | 16,000,000 SHU | – |
| Cn1c(=O)c2[nH]cnc2n(C)c1=O [theophylline] | – | – | Peak theophylline plasma levels [2, 3]: 8.78 ± 0.98 mg/L; levels of theophylline (absorption) [2, 3]: 138.32+/−17.27 mg H/liter; mean residence times of theophylline [2, 3]: 20.98+/−5.75 H; Peak theophylline plasma levels ([2]; without capsicum): 6.65 ± 0.76 mg/L; levels of theophylline (absorption) ([2]; without capsicum): 86.06+/−9.78 mg H/liter; mean residence times of theophylline ([2]; without capsicum): 14.94+/−2.97 H; theophylline plasma levels after second administration of capsicum suspension ([2]; second capsicum suspension 11 hours later, every rabbit): new rise |
| C/C=C/C=C/C=C\CC/C=C/C(=O)NCC(C)(C)O [α-hydroxy-sanshool] | 619 SHU | 26,000 SHU | – |
| C/C=C/C=C/C=C\CC/C=C/C(=O)NCC(C)C [α-sanshool] | 368 SHU | 80,000 SHU | – |
| C/C=C/C=C/C=C/CC/C=C/C(=O)NCC(C)(C)O [β-hydroxy-sanshool] | 35 SHU | 13,000 SHU | – |
| C/C=C/C=C/C=C/CC/C=C/C(=O)NCC(C)C [β-sanshool] | 49 SHU | 70,000 SHU | – |
| C/C=C/C=C/C=C\CC/C=C/C=C/C(=O)NCC(C)C [γ-sanshool] | 209 SHU | 110,000 SHU | – |
| C/C=C/C=C/C=C/CC/C=C/C=C/C(=O)NCC(C)C [δ-sanshool] | 22 SHU | 110,000 SHU | – |
